The assay concerns the target human NaV1.8 (Homo sapiens (Human), UniProt Q9Y5Y9). Nature of the assay: Nav1.8 Qube automated patch-clamp assay. In kind it is cell-based. Particulars: human NaV1.8 stably expressed in HEK 293 cells; automated 384-well patch-clamp; resting or inactivated state not specified. In a few lines:
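Human NaV1.8 in HEK293 cells, automated whole-cell patch clamp at room temperature: 1 Hz train of ten 20 ms pulses to 10 mV from −90 mV, repolarization to −67 mV. First- and tenth-pulse peak currents gave resting and inactivated-state IC50 values via Hill fits.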

Each structure is given as a SMILES string.

Sequence of human NaV1.8 (Q9Y5Y9 whole entry): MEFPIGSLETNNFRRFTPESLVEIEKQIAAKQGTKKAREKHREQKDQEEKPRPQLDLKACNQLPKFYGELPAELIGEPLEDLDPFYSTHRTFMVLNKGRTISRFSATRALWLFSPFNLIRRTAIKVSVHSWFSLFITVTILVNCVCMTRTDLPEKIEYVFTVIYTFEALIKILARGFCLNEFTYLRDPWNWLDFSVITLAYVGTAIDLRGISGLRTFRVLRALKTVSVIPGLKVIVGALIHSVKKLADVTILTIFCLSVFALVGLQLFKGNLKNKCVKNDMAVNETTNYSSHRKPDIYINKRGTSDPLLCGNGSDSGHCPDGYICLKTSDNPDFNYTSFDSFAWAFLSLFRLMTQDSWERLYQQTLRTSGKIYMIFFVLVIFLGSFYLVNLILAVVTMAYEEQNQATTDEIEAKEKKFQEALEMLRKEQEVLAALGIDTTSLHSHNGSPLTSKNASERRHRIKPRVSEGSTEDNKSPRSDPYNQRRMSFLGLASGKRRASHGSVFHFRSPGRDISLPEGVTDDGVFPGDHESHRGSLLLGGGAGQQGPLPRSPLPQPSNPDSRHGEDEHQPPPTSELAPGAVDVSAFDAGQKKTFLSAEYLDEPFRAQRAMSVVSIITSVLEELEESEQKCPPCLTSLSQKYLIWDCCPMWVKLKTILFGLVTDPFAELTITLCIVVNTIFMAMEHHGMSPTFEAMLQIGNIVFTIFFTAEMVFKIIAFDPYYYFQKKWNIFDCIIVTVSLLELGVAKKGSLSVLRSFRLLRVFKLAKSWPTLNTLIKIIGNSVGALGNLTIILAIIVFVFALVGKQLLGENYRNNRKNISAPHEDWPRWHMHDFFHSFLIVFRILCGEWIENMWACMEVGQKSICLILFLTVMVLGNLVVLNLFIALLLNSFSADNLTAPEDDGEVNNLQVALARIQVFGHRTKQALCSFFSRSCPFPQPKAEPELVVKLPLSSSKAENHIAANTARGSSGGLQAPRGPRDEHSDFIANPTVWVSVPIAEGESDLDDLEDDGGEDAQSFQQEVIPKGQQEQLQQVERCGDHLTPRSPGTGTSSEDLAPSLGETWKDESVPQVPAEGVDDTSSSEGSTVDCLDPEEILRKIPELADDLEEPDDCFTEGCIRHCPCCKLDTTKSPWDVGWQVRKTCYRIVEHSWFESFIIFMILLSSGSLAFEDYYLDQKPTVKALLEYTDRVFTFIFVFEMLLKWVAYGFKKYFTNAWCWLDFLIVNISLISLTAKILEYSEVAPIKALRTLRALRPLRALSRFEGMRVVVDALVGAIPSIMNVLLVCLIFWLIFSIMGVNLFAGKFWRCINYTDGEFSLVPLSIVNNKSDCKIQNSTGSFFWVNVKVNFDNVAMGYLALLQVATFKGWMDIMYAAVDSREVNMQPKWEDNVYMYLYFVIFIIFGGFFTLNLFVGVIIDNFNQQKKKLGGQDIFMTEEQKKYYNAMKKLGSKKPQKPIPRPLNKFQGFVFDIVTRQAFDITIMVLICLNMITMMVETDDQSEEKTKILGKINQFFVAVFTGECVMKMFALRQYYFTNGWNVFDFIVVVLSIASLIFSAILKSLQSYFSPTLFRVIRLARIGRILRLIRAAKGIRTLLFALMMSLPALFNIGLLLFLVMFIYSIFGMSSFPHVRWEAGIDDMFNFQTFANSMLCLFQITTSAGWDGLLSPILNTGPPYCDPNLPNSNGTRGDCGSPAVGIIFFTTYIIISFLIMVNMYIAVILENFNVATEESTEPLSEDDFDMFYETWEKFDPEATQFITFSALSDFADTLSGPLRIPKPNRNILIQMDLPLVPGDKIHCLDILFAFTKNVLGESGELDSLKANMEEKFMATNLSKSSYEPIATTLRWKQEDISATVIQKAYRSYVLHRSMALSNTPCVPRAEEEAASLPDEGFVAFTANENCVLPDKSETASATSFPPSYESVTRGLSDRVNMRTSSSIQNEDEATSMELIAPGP

Consider `O=C1NC[C@@H](C(=O)NC(c2cnc(C(F)(F)F)nc2)c2ccc(F)c(Cl)c2F)N1` (single isomer, unassigned) [Example 48, (S)-N-((R or S)-(3-chloro-2,4-difluorophenyl)(2-(trifluoromethyl)pyrimidin-5-yl)methyl)-2-oxoimidazolidine-4-carboxamide], for which the IC50 (commonly the concentration needed to halve the response being measured) stood at 16 nM.

`O=C1NC[C@@H](C(=O)NC(c2ccc(OC(F)(F)F)c(Cl)c2)c2ccnc(C(F)(F)F)n2)N1` (single isomer, unassigned) [Example 49A, (S)-N-((R or S)-3-chloro-4-(trifluoro-methoxy)phenyl)(2-(trifluoromethyl)pyrimidin-4-yl)methyl)-2-oxoimidazolidine-4-carboxamide] gave an IC50 of 7.6 nM.

As for `O=C1NC[C@@H](C(=O)NC(c2ccc(OC(F)(F)F)c(Cl)c2)c2ccnc(C(F)(F)F)n2)N1` (single isomer, unassigned) [Example 49B, (S)-N-((R or S)-3-chloro-4-(trifluoro-methoxy)phenyl)(2-(trifluoromethyl)pyrimidin-4-yl)methyl)-2-oxoimidazolidine-4-carboxamide], the IC50 is 6.8 nM.

Turning to `O=C1NC[C@@H](C(=O)NC(c2ccc(OCC(F)(F)F)nn2)c2ccc(F)c(Cl)c2F)N1` (single isomer, unassigned) [Example 50A, (4S)—N—((R or S)-(3-chloro-2,4-difluorophenyl)(6-(2,2,2-trifluoroethoxy)-pyridazin-3-yl)methyl)-2-oxoimidazolidine-4-carboxamide], the 50% inhibitory concentration (IC50) turned out to be 45 nM.

Take `O=C1NC[C@@H](C(=O)NC(c2ccc(OCC(F)(F)F)nn2)c2ccc(F)c(Cl)c2F)N1` (single isomer, unassigned) [Example 50B, (4S)—N—((R or S)-(3-chloro-2,4-difluorophenyl)(6-(2,2,2-trifluoroethoxy)pyridazin-3-yl)methyl)-2-oxoimidazolidine-4-carboxamide]: the IC50 stood at 206 nM.

Regarding `O=C1NC[C@@H](C(=O)NC(c2cnc(OCC(F)(F)F)cn2)c2ccc(F)c(Cl)c2F)N1` (single isomer, unassigned) [Example 51A, N—((R or S)-(3-chloro-2,4-difluorophenyl)(5-(2,2,2-trifluoroethoxy)pyrazin-2-yl)methyl)-2-oxoimidazolidine-4-carboxamide], the midpoint of inhibition, the IC50, lay at 9.2 nM. Against the preceding compound, the IC50 is about 22-fold lower.

`O=C1NC[C@@H](C(=O)NC(c2cnc(OCC(F)(F)F)cn2)c2ccc(F)c(Cl)c2F)N1` (single isomer, unassigned) [Example 51B, N—((R or S)-(3-chloro-2,4-difluorophenyl)(5-(2,2,2-trifluoroethoxy)pyrazin-2-yl)methyl)-2-oxoimidazolidine-4-carboxamide] returned a concentration for half-maximal inhibition (IC50) of 166 nM.

For `O=C1NC[C@@H](C(=O)NC(CCc2ccc(Cl)cc2)c2ccc(F)c(Cl)c2F)N1` (single isomer, unassigned) [Example 52A, (4S)—N—((R or S)-1-(3-chloro-2,4-difluorophenyl)-3-(4-chlorophenyl)propyl)-2-oxoimidazolidine-4-carboxamide], inhibition was half-maximal at 46 nM (IC50).

As for `O=C1NC[C@@H](C(=O)NC(CCc2ccc(Cl)cc2)c2ccc(F)c(Cl)c2F)N1` (single isomer, unassigned) [Example 52B, (4S)—N—((R or S)-1-(3-chloro-2,4-difluorophenyl)-3-(4-chlorophenyl)propyl)-2-oxoimidazolidine-4-carboxamide], half-maximal inhibition (IC50) was put at 4.3 nM.

In the case of `O=C1NC[C@@H](C(=O)NC(CC2CCCCC2)c2ccc(F)c(Cl)c2F)N1` (single isomer, unassigned) [Example 54A, (S)-N-((R or S)-1-(3-chloro-2,4-difluorophenyl)-2-cyclohexylethyl)-2-oxoimidazolidine-4-carboxamide], the IC50 came to 3.2 nM.

Take `O=C1NC[C@@H](C(=O)NC(CC2CCCCC2)c2ccc(F)c(Cl)c2F)N1` (single isomer, unassigned) [Example 54B, (S)-N-((R or S)-1-(3-chloro-2,4-difluorophenyl)-2-cyclohexylethyl)-2-oxoimidazolidine-4-carboxamide]: the IC50 came to 50 nM.

The compound `O=C1NC[C@@H](C(=O)NC(c2cnc(OC(F)F)nc2)c2ccc(F)c(Cl)c2F)N1` (single isomer, unassigned) [Example 55A, (4S)—N—((R or S)-(3-chloro-2,4-difluorophenyl)(2-(difluoromethoxy)pyrimidin-5-yl)methyl)-2-oxoimidazolidine-4-carboxamide] displayed an IC50 of 79 nM.

The compound `O=C1NC[C@@H](C(=O)NC(c2cnc(C(F)(F)F)c(Cl)c2)c2ccc(Cl)c(C(F)(F)F)n2)N1` (single isomer, unassigned) [Example 56A, (S)-N-((R or S)-(5-chloro-6-(trifluoromethyl)pyridin-2-yl)(5-chloro-6-(trifluoromethyl)pyridin-3-yl)methyl)-2-oxoimidazolidine-4-carboxamide] had an IC50 of 2.5 nM.

The compound `O=C1NC[C@@H](C(=O)NC(c2cnc(C(F)(F)F)c(Cl)c2)c2ccc(Cl)c(C(F)(F)F)n2)N1` (single isomer, unassigned) [Example 56B, (S)-N-((R or S)-(5-chloro-6-(trifluoromethyl)pyridin-2-yl)(5-chloro-6-(trifluoromethyl)pyridin-3-yl)methyl)-2-oxoimidazolidine-4-carboxamide] showed an IC50 of 4.5 nM.

On to `N#Cc1cc(C(NC(=O)[C@@H]2CNC(=O)N2)c2ccc(OC(F)(F)F)cc2)ccc1Cl` (single isomer, unassigned) [Example 57A, (S)-N-((R or S)-(4-chloro-3-cyanophenyl)(4-(trifluoromethoxy)phenyl)methyl)-2-oxoimidazolidine-4-carboxamide], for which the IC50 was 3.5 nM.

`N#Cc1cc(C(NC(=O)[C@@H]2CNC(=O)N2)c2ccc(OC(F)(F)F)cc2)ccc1Cl` (single isomer, unassigned) [Example 57B, (S)-N-((R or S)-(4-chloro-3-cyanophenyl)(4-(trifluoromethoxy)phenyl)methyl)-2-oxoimidazolidine-4-carboxamide] registered an IC50 of 2.4 nM.

In turn, `O=C1NC[C@@H](C(=O)NC(c2ccc(F)c(Cl)c2F)C2CCCCN2CC(F)(F)F)N1` (single isomer, unassigned) [Example 58A, (S)-N-((R or S)-(3-chloro-2,4-difluorophenyl) ((R or S)-1-(2,2,2-trifluoroethyl)piperidin-2-yl)methyl)-2-oxoimidazolidine-4-carboxamide] showed an IC50 of 2010 nM.

The compound `O=C1NC[C@@H](C(=O)NC(c2ccc(F)c(Cl)c2F)C2CCCCN2CC(F)(F)F)N1` (single isomer, unassigned) [Example 58B, (S)-N-((R or S)-(3-chloro-2,4-difluorophenyl) ((R or S)-1-(2,2,2-trifluoroethyl)piperidin-2-yl)methyl)-2-oxoimidazolidine-4-carboxamide] returned a 50% inhibitory concentration (IC50) of 35 nM.

In turn, `O=C1NC[C@@H](C(=O)NC(c2ccc(F)c(Cl)c2F)C2CCCCN2CC(F)(F)F)N1` (single isomer, unassigned) [Example 58C, (S)-N-((R or S)-(3-chloro-2,4-difluorophenyl) ((R or S)-1-(2,2,2-trifluoroethyl)piperidin-2-yl)methyl)-2-oxoimidazolidine-4-carboxamide] showed an IC50 of 130 nM. This IC50 lies about 3.7-fold higher than the previous one.

The compound `O=C1NC[C@@H](C(=O)NC(c2ccc(F)c(Cl)c2F)C2CCCCN2CC(F)(F)F)N1` (single isomer, unassigned) [Example 58D, (S)-N-((R or S)-(3-chloro-2,4-difluorophenyl) ((R or S)-1-(2,2,2-trifluoroethyl)piperidin-2-yl)methyl)-2-oxoimidazolidine-4-carboxamide] yielded an IC50 of 787 nM.

On to `O=C1NC[C@@H](C(=O)NC(c2ccc(Cl)cc2)c2cc(C(F)(F)F)c(F)cn2)N1` (single isomer, unassigned) [Example 59A, (S)-N-((R or S)-(4-chlorophenyl)(5-fluoro-4-(trifluoromethyl)pyridin-2-yl)methyl)-2-oxoimidazolidine-4-carboxamide], for which the IC50 came out at 44 nM.

With `O=C1NC[C@@H](C(=O)NC(c2ccc(Cl)cc2)c2cc(C(F)(F)F)c(F)cn2)N1` (single isomer, unassigned) [Example 59B, (S)-N-((R or S)-(4-chlorophenyl)(5-fluoro-4-(trifluoromethyl)pyridin-2-yl)methyl)-2-oxo-imidazolidine-4-carboxamide], the IC50 was found to be 62 nM.

Turning to `N#Cc1ccc(C(NC(=O)[C@@H]2CNC(=O)N2)c2ccc(Cl)c(C(F)(F)F)c2)cc1` (single isomer, unassigned) [Example 60A, (S)-N-((R or S)-(4-chloro-3-(trifluoromethyl)-phenyl)(4-cyanophenyl)-methyl)-2-oxo-imidazolidine-4-carboxamide], the half-maximal inhibitory concentration (IC50) stood at 3.1 nM. This IC50 is about 20-fold lower than that of the compound before.

In turn, `N#Cc1ccc(C(NC(=O)[C@@H]2CNC(=O)N2)c2ccc(Cl)c(C(F)(F)F)c2)cc1` (single isomer, unassigned) [Example 60B, (S)-N-((R or S)-(4-chloro-3-(trifluoromethyl)-phenyl)(4-cyanophenyl)-methyl)-2-oxo-imidazolidine-4-carboxamide] had an IC50 of 3.8 nM.

Regarding `O=C1NC[C@@H](C(=O)NC(c2ccc(F)c(Cl)c2)c2ccc(Cl)c(C(F)(F)F)n2)N1` (single isomer, unassigned) [Example 62A, (S)-N-((R or S)-(3-chloro-4-fluorophenyl)(5-chloro-6-(trifluoromethyl)pyridin-2-yl)methyl)-2-oxoimidazolidine-4-carboxamide], it took 8 nM to reach half-maximal inhibition (IC50).

On to `O=C1NC[C@@H](C(=O)NC(c2ccc(F)c(Cl)c2)c2ccc(Cl)c(C(F)(F)F)n2)N1` (single isomer, unassigned) [Example 62B, (S)-N-((R or S)-(3-chloro-4-fluorophenyl)(5-chloro-6-(trifluoromethyl)pyridin-2-yl)methyl)-2-oxoimidazolidine-4-carboxamide], for which the 50% inhibitory concentration (IC50) is 0.4 nM.
